Measured values as given in US20230114123A1, “METHOD OF STIMULATING ASYMMETRIC DIVISION OF SATELLITE STEM CELLS” (Ottawa Hospital Research Institute, priority 2017, published 2023).

Key:
[1] = system: EGFR phosphorylation; experiment: p-EGFR immunoblot in serum-starved, re-fed primary myoblasts; type: cell-based, mouse; conditions: 1 h
Description: Cell Culture and Co-Immunoprecipitation. Satellite cells were isolated from WT mice by fluorescence activated cell sorting and cultured as primary myoblasts on collagen-coated plates in primary myoblast growth media (Ham's F10 media (Gibco) with 20% FBS (Wisent), 1% penicillin-streptomycin (Gibco) and 5 ng/mL bFGF (Cedarlane)).
Immunoblotting. Proteins were separated on 10% SDS-PAGE and transferred to Immobilon-P PVDF membrane (EMD Millipore). Membranes were probed with primary antibodies, followed by light chain specific HRP-conjugated secondary antibodies at 1:5000 (Bio-Rad) and developed using Immobilon Western HRP substrate (EMD Millipore). Membranes were visualized using FluorChem HD2 (Alpha Innotech) or exposed to BIOMAX film (Eastman Kodak).

[2] = system: mdx satellite cells; experiment: Myog-expressing / myogenic cells on mdx myofibers at 72 h; type: cell-based, mouse; conditions: 72 h of mdx myofiber culture, FIG. 4D
Description: EDL fiber Culture and siRNA Transfection. […] Briefly, EDL were carefully dissected and incubated in DMEM with 2% L-glutamine, 4.5% glucose, and 110 mg/mL sodium pyruvate (Gibco) containing 0.2% collagenase I (Sigma) for 45 min. Myofibers were isolated using gentle trituration with a glass pipet. Myofibers were cultured for 36, 42, or 72 h in DMEM containing 20% FBS (Wisent), 1% chick embryo extract (MP Biomedicals), and 2.5 ng/ml bFGF (Cedarlane). For pharmacological inhibition, Lapatinib ditosylate (1 mM in DMSO; Santa
Cruz Biotechnology), PTP1b inhibitor CAS 765317-72-4 (10 mM in DMSO; Santa Cruz Biotechnologies) was added to the culture medium for a final concentration of 1 μM or 10 μM, respectively; equal dilution of DMSO was used as vehicle control.

| Molecule | increase in EGFR phosphorylation (p-EGFR grey values) ([1]; growth media alone, FIGS. 12A and 12B) [%] | increase in EGFR phosphorylation (p-EGFR grey values) ([1]; in the presence of added recombinant EGF) [%] | increase in total numbers of myogenic cells [2] |
| --- | --- | --- | --- |
| CCc1oc2cc(S(=O)(=O)Nc3ccc(S(=O)(=O)Nc4nccs4)cc3)ccc2c1C(=O)c1cc(Br)c(O)c(Br)c1 [PTP1b inhibitor, 3-(3,5-dibromo-4-hydroxy-benzoyl)-2-ethyl-benzofuran-6-sulfonicacid-(4-(thiazol-2-ylsulfamyl)-phenyl)-amide, reference compound] | 80 | 20 |  |
| EGF: human recombinant EGF protein (Life Technologies), direct activator of the EGFR pathway |  |  | about 14% |
